Assay results taken from ChEMBL document CHEMBL2412969, “Antihyperglycemic and antihyperlipidemic activities of 2-(4-[(2-hydroxybenzyl) amino]-phenyl amino-methyl)-phenol in STZ induced diabetic rats” (Eur J Med Chem, 2013).
The source made the active and inactive calls. The calls are words filed in the database; no cut-off is given here.

Tests used:
Rattus norvegicus [1] = assay: Antihyperglycemic activity in Wistar albino rat streptozotocin-induced diabetic model assessed as reduction of blood glucose level at 30 mg/kg, po after 5 hrs (reference value: 372.2 +/- 16.6 mg/dl); format: functional
Rattus norvegicus [2] = assay: Antihyperglycemic activity in Wistar albino rat streptozotocin-induced diabetic model assessed as reduction of blood glucose level at 30 mg/kg, po after 4 hrs (reference value: 373.5 +/- 15.6 mg/dl); format: functional
Rattus norvegicus [3] = assay: Antihyperglycemic activity in Wistar albino rat streptozotocin-induced diabetic model assessed as reduction of blood glucose level at 20 mg/kg, po after 6 hrs (reference value: 372.5 +/- 15.6 mg/dl); format: functional
Rattus norvegicus [4] = assay: Antihyperglycemic activity in Wistar albino rat streptozotocin-induced diabetic model assessed as reduction of blood glucose level at 20 mg/kg, po after 4 hrs (reference value: 373.5 +/- 15.6 mg/dl); format: functional
Rattus norvegicus [5] = assay: Antihyperglycemic activity in Wistar albino rat streptozotocin-induced diabetic model assessed as reduction of blood glucose level at 20 mg/kg, po after 3 hrs (reference value: 384.33 +/- 17.33 mg/dl); format: functional
Rattus norvegicus [6] = assay: Antihyperglycemic activity in Wistar albino rat streptozotocin-induced diabetic model assessed as reduction of blood glucose level at 20 mg/kg, po after 2 hrs (reference value: 386.66 +/- 17.5 mg/dl); format: functional
Rattus norvegicus [7] = assay: Hypoglycemic activity in Wistar albino rat assessed as reduction of blood glucose level at 60 mg/kg, po after 2 hrs (reference value: 76.5 +/- 3.7 mg/dl); format: ADME, organism-based; design: dose 60 mg/kg, route oral; conditions: in vivo
Rattus norvegicus [8] = assay: Hypoglycemic activity in Wistar albino rat assessed as reduction of blood glucose level at 60 mg/kg, po after 1 hr (reference value: 71.26 +/- 4.3 mg/dl); format: ADME, organism-based; design: dose 60 mg/kg, route oral; conditions: in vivo
Rattus norvegicus [9] = assay: Hypoglycemic activity in Wistar albino rat assessed as reduction of blood glucose level at 30 mg/kg, po after 3 hrs (reference value: 76.3 +/- 5.4 mg/dl); format: ADME, organism-based; design: dose 30 mg/kg, route oral; conditions: in vivo
Rattus norvegicus [10] = assay: Hypoglycemic activity in Wistar albino rat assessed as reduction of blood glucose level at 20 mg/kg, po after 6 hrs (reference value: 73.3 +/- 4.4 mg/dl); format: ADME, organism-based; design: dose 20 mg/kg, route oral; conditions: in vivo
Rattus norvegicus [11] = assay: Hypoglycemic activity in Wistar albino rat assessed as reduction of blood glucose level at 20 mg/kg, po after 4 hrs (reference value: 75.8 +/- 4.7 mg/dl); format: ADME, organism-based; design: dose 20 mg/kg, route oral; conditions: in vivo
Rattus norvegicus [12] = assay: Hypoglycemic activity in Wistar albino rat assessed as reduction of blood glucose level at 20 mg/kg, po after 2 hrs (reference value: 76.5 +/- 3.7 mg/dl); format: ADME, organism-based; design: dose 20 mg/kg, route oral; conditions: in vivo
Rattus norvegicus [13] = assay: Hypoglycemic activity in Wistar albino rat assessed as reduction of blood glucose level at 20 mg/kg, po after 5 hrs (reference value: 73.8 +/- 4.5 mg/dl); format: ADME, organism-based; design: dose 20 mg/kg, route oral; conditions: in vivo
Rattus norvegicus [14] = assay: Hypoglycemic activity in Wistar albino rat assessed as reduction of blood glucose level at 20 mg/kg, po after 3 hrs (reference value: 76.3 +/- 5.4 mg/dl); format: ADME, organism-based; design: dose 20 mg/kg, route oral; conditions: in vivo
Rattus norvegicus [15] = assay: Hepatoprotective activity in Wistar albino rat assessed as protection against streptozotocin-induced increase in AST, ALT and ALP level in serum at 30 mg/kg, po qd for 30 days; format: functional, organism-based; design: dose 30 mg/kg
Rattus norvegicus [16] = assay: Renalprotective activity in Wistar albino rat assessed as protection against streptozotocin-induced increase in urea level in blood at 30 mg/kg, po qd for 30 days; format: functional
Rattus norvegicus [17] = assay: Renaltoxicity in Wistar albino rat assessed as creatinine level in blood at 30 mg/kg, po qd for 30 days; format: organism-based; design: dose 30 mg/kg, route oral; conditions: in vivo, 720 h
Rattus norvegicus [18] = assay: Antiatherosclerosis activity in Wistar albino rat streptozotocin-induced diabetic model assessed as protection from atherogenicity at 30 mg/kg, po qd for 30 days relative to control; format: functional
Rattus norvegicus [19] = assay: Antihyperglycemic activity in Wistar albino rat streptozotocin-induced diabetic model assessed as increase of body weight at 30 mg/kg, po qd measured on day 15 (reference value: -30.3%); format: functional
Rattus norvegicus [20] = assay: Antihyperglycemic activity in Wistar albino rat streptozotocin-induced diabetic model assessed as reduction of fasting blood glucose level at 30 mg/kg, po qd measured on day 1 (reference value: 416.4 +/- 24.2 mg/dl); format: functional
Rattus norvegicus [21] = assay: Hypoglycemic activity in Wistar albino rat assessed as reduction of fasting blood glucose level at 30 mg/kg, po qd measured on day 30 (reference value: 94.8 +/- 10.4 mg/dl); format: ADME, organism-based; design: dose 30 mg/kg, route oral; conditions: in vivo
Rattus norvegicus [22] = assay: Hypoglycemic activity in Wistar albino rat assessed as reduction of fasting blood glucose level at 30 mg/kg, po qd measured on day 15 (reference value: 82.66 +/- 6.05 mg/dl); format: ADME, organism-based; design: dose 30 mg/kg, route oral; conditions: in vivo
Rattus norvegicus [23] = assay: Antihyperglycemic activity in Wistar albino rat streptozotocin-induced diabetic model assessed as reduction of blood glucose level at 60 mg/kg, po after 2 hrs (reference value: 386.66 +/- 17.5 mg/dl); format: functional
Rattus norvegicus [24] = assay: Antihyperglycemic activity in Wistar albino rat streptozotocin-induced diabetic model assessed as reduction of blood glucose level at 30 mg/kg, po after 6 hrs (reference value: 372.5 +/- 15.6 mg/dl); format: functional

## Oc1ccccc1CNc1ccc(NCc2ccccc2O)cc1
Rattus norvegicus [1]
  Activity: 172.8 mg/dL
Rattus norvegicus [2]
  Activity: 215.6 mg/dL
Rattus norvegicus [3]
  Activity: 223.28 mg/dL
Rattus norvegicus [4]
  Activity: 265.16 mg/dL
Rattus norvegicus [5]
  Activity: 301.3 mg/dL
Rattus norvegicus [6]
  Activity: 312.83 mg/dL
Rattus norvegicus [7]
  Activity: 71.3 mg/dL
Rattus norvegicus [8]
  Activity: 75.7 mg/dL
Rattus norvegicus [9]
  Activity: 74.16 mg/dL
Rattus norvegicus [10]
  Activity: 70 mg/dL
Rattus norvegicus [11]
  Activity: 72 mg/dL
Rattus norvegicus [12]
  Activity: 73.16 mg/dL
Rattus norvegicus [13]
  Activity: 70.1 mg/dL
Rattus norvegicus [14]
  Activity: 74.16 mg/dL
Rattus norvegicus [15]
  Activity: Active
Rattus norvegicus [16]
  Activity: 54.02 mg/dL
Rattus norvegicus [17]
  Activity: 0.37 mg/dL
Rattus norvegicus [18]
  Activity: 66.8%
Rattus norvegicus [19]
  Activity: 8.57%
Rattus norvegicus [20]
  Activity: 333 mg/dL
Rattus norvegicus [21]
  Activity: 98.67 mg/dL
Rattus norvegicus [22]
  Activity: 80.66 mg/dL
Rattus norvegicus [23]
  Activity: 109.5 mg/dL
Rattus norvegicus [24]
  Activity: 102 mg/dL
